The values that follow come from patent publication US9422238B2, “ICMT inhibitors” (National University of Singapore, priority 2012, dated 2016).

Data set [1] can be described thus: Parallel Artificial Membrane Permeability Assay (PAMPA). The settings on record: 500 uM stock, similar conditions. On the procedure:
Briefly, determinations were carried out on MultiScreen-IP PAMPA assay (donor) plates (MAIPNTR10) and MultiScreen Receiver Plates (MATRNPS50) from Millipore Corporation (USA) with 1% lecithin (L-α-phosphatidylcholine from lyophilized powder of egg yolk, Sigma Aldrich, USA) in dodecane (ReagentPlus®, Sigma Aldrich, USA) as lipid barrier. 5 μL of 1% lecithin in dodecane was dispensed into the wells of the donor plates. […] The mobile phase was Milli-Q water (0.1% formic acid) and acetonitrile (0.1% formic acid), run on gradient.
Pe was obtained from Equation 1:
[formula] Where VA and VD are the volumes of acceptor (cm^3) and donor (cm^3) wells respectively, A is the area of the surface area of the membrane (0.24 cm^2), t is the permeation time (s); S is the fraction of sample remaining in the donor and acceptor wells after permeation time and is determined from Equation 2, CA and CD are the concentrations (μM) of test/reference compound in acceptor and donor wells respectively.
The Pe of each compound was obtained from at least 3 separate experiments using no less than 2 different stock solutions. For each independent determination, triplicates (3 wells) were run for each compound.
On the technique in general: PAMPA measures passive passage across an artificial lipid membrane.

The subject of data set [2] is PC3 Prostrate cancer cells. Put plainly: Antiproliferative activity / cell viability (MTS, 72 h). The data set is classed as cell-based, human. The settings on record: Homo sapiens.
Procedure: (§4) The relative number of the live cells was determined using the CellTiter® 96 AQueous One Solution Cell Proliferation Assay (Promega). Determinations were made in duplicates or triplicates.
The subject of data set [3] is Human lung fibroblast IMR90 cells. Put plainly: Cell viability on non-malignant cells (MTS, 72 h). The data set is classed as cell-based. On the procedure: (§1) Cell viability was determined from the expression:
(§2) The plot was constrained to ≧0 and ≦100%.
Human lung fibroblast IMR90 cells were purchased from ATCC (Rockville, Md.) and grown in Eagle's Minimal Essential Media (EMEM, Sigma Aldrich, Singapore) at 37° C., 5% CO2. […] Seeding density was maintained at 4000 cells per well.

The nature of a further data set: physchem. The settings on record: for solubility at 3 h / solubility at 24 h: pH 7.4, aqueous buffer, kinetic from dmso stock; for solubility at 24 h: 25 °C. On the procedure:
The turbid solution was delivered to the filter plate, agitated for a specific time period and then filtered. The concentration of dissolved compound in the filtrate was determined by uv spectroscopy and referred to pre-constructed calibration curves for solubility determination.
(§3) Determination of aqueous solubility was carried out on Multiscreen® Solubility filter plates (Millipore-MSSLBPC10) from Millipore Corporation (MA, USA). The protocol (PC2445EN00, Millipore Corporation) was followed. Briefly, various concentrations of the test compound were prepared in Universal buffer (pH 7.4)/acetonitrile/DMSO. The UV absorbances of these solutions were obtained at a pre-determined wavelength and used to construct a calibration curve for the test compound. Next, a stock solution of the test compound in DMSO was prepared at a known concentration, diluted with Universal buffer (pH 7.4), dispensed into wells in the Multiscreen Solubility filter plate, and agitated for a period of time. The suspension is then filtered, the filtrate collected and diluted with acetonitrile to give the same solvent composition used to prepare the calibration solutions. The absorbance of the diluted filtrate was then read at the predetermined wavelength and the concentration of the filtrate (taken here to be equivalent to the solubility of the test compound) was determined from the calibration curve.
as §3, with “24 hours at room temperature (25 deg C.). […]” for “a period of time.”, “was” for “is then”, “was” for “was then”, “(equivalent” for “(taken here to be equivalent”, “curve. […] LCMS determinations were made on an Agilent 1200 Series HPLC linked to a AB Sciex Instruments 3200 Q TRAP LC/MS/MS. Separations were carried out on a Phenomenex Luna column [3u, C18(2), 100A, 5×4.6 mm]. […] Quantification was based on the ratio of peak areas of the daughter ion and the mother ion (M+H), normalized against the same ratio obtained for the internal standard. The solubility determinations were carried out in triplicates or more from two different stock solutions.” for “curve.”

Data set [4] has as its system MDA-MB-231 human breast cells. Put plainly: Antiproliferative activity / cell viability (MTS, 72 h). The note with it: Homo sapiens.
Procedure: as §4
Human breast cancer MDA-MB231, liver cancer HepG2 and lung fibroblast cells were purchased from ATCC (Rockville, Md.). MDA-MB231 cells and IMR-90 cells were grown in DMEM (Sigma Aldrich, Singapore) and EMEM (Sigma Aldrich, Singapore) respectively at 37° C., 5% CO2. DMEM was supplemented with 10% fetal bovine serum (Invitrogen, heat treated at 65 deg C., 30 min), 50 units/L penicillin-G and 50 μg/mL streptomycin. EMEM was supplemented with 10% fetal bovine serum (heat treated as above), 100 mg/L penicillin-G and 100 μg/mL streptomycin.
Cell viability was assessed using CellTitre 96® Aqueous One Solution (Promega, Madison, Wis.) containing the tetrazolium salt 3-(4,5-dimethylthiazol-2-yl)-5-(3-carboxymethoxyphenyl)-2-(4-sulfophenyl)-2H-tetrazolium (MTS). […] Final concentration of DMSO per well was maintained at 0.5% v/v. […] Cell viability was determined from the expression:
The plot was constrained to ≧0 and ≦100%. At least 3 independent determinations of IC50 were made using two different stock solutions of test compound.
The target in data set [5] is T1, Isoprenylcysteine carboxyl methyltransferase (Icmt) (Homo sapiens, UniProt O60725).
T1 construct: made in house; host or cells: Sf9 (Spodoptera frugiperda) insect cells; membrane preparation provided by Prof PJ Casey (Duke University / Duke-NUS)
Put plainly: Icmt inhibition, scintillation proximity assay with BFC and [3H]SAM. It counts as biochemical. On the procedure:
Isoprenylcysteine carboxyl methyltransferase (Icmt) was provided by Prof PJ Casey of Duke University, NC. S-Adenosylmethionine (SAM), magnesium chloride Hexahydrate (MgCl2), tartrazine, 4-(2-hydroxyethyl)-1-piperazineethanesulfonic acid (HEPES), dimethyl sulfoxide (DMSO) and dithiotreitol (DTT) were purchased from Sigma (Mo, USA). [^3H] S-Adenosylmethionine, [^3H] Biotin and Streptavidin PVT SPA Beads were purchased from PerkinElmer (Waltham, Mass.). Assays were performed in black small volume 384 well microtitre plates from PerkinElmer.
Stocks of Icmt membrane protein (30 μg/μL) stored at −80° C. were thawed at 37° C. and placed on ice. The Icmt membrane protein was diluted in assay buffer (70 mM HEPES, 100 mM NaCl, 5 mM Mg Cl2 and 3 mM DTT, pH 7.5) to a 0.03 μg/μL working concentration and added to the wells of a microtitre plate (5 μl/well). To each wells 20 μl of the reaction buffer was added. The reaction was initiated with the addition of 5 μL of substrate solution containing BFC (6 μM), SAM (3 μM) and 30 μCi/mL [^3H] SAM (all of these reagents were stored at −20° C., SAM reagents thawed on ice, BFC thawed at RT). The plate was incubated at 37° C. for 30 minutes. The reaction was stopped with the addition of 15 μL of stop solution containing SAM (150 μM) and Streptavidin SPA beads (20 mg/mL). Following overnight incubation at ambient temperature radioactivity was counted on a Microbeta Trilux™ (Perkin Elmer, Turku, Finland).
Sf9 (Spodoptera frugiperda ovarian) membranes containing recombinant Icmt were provided by Prof PJ Casey (Duke University, NC and Duke-NUS Graduate Medical School). S-Adenosylmethionine (SAM), magnesium chloride hexahydrate, tartrazine, 4-(2-hydroxyethyl)-1-piperazineethanesulfonic acid (HEPES) and dithiotreitol (DTT) were purchased from Sigma (Mo, USA). [^3H] S-Adenosylmethionine, [^3H] biotin and streptavidin PVT SPA Beads were purchased from PerkinElmer (Waltham, Mass.). Biotinylated farnesylcysteine was synthesized as described in an earlier report. Assays were performed in black 384-well microtitre plates from PerkinElmer.
A vial of Icmt membrane protein (30 μg/μL) stored at −80° C. was thawed at 37° C. and placed on ice. The protein was diluted in assay buffer (70 mM HEPES, 100 mM NaCl, 5 mM MgCl2, 3 mM DTT, pH 7.5) to 0.03 μg/μL and aliquots were added to each well (5 μL/well), followed by 20 μL of the assay buffer. The reaction was initiated by adding 5 μL of a solution containing biotinylated BFC (6 μM), SAM (3 μM) and 30 μCi/mL [^3H] SAM. These reagents were stored at −20° C. and thawed on ice (SAM, [^3H] SAM) or at room temperature (BFC). The plate was incubated at 37° C. for 30 minutes after which the reaction was quenched by adding 15 μL of a solution comprising SAM (150 μM) and streptavidin SPA beads (20 mg/mL). After overnight incubation at ambient temperature, radioactivity was counted (Microbeta Trilux™, Perkin Elmer, Turku, Finland). The degree of inhibition was assessed from the radioactivity obtained in presence of test compound compared to that obtained from the control sample […]. Two independent determinations were made for each test compound.
(In general: SPA uses beads or plates that emit light when radiolabelled molecules are held near them.)

Data set [6] can be described thus: Aggregation tendency by dynamic light scattering (DLS). The data set is classed as physicochemical. The note with it: for DLS count rate (kcps): 1% DMSO, potassium phosphate buffer 5 mM pH 7.4. The method, then: Stock solutions (10 mM) of test compounds prepared in DMSO, diluted to 1 mM with DMSO and then serially diluted with potassium phosphate buffer (5 mM, pH 7.4, prefiltered before use) to give final concentrations of 1 μM and 10 μM. Final concentration of DMSO was 1% v/v. Measurements were carried out on the Malvern Instrument Zetasizer Nano ZS system equipped with a 4 mW He—Ne laser at 633 nm and detector angle of 90°. Three or more determinations of derived count rates (kilocounts per second, kcps) were obtained from each concentration of test compound, using two separately prepared stock solutions. Data collection was carried out using the software supplied with the instrument. Results are represented as mean±standard deviation. The positive control was benzyl benzoate (250 μM) which gave a count rate of 1180 kcps (±35). The vehicle (phosphate buffer, 1% DMSO) gave a reading of 14.9±0.4.

Data set [7] has as its system Human hepatocellular carcinoma HepG2 cells. Put plainly: Cell viability (MTS, 72 h). It counts as cell-based. The settings on record: HepG2, Table 6, mean (SD), read-out: IC50 (μM) HepG2. On the procedure:
as §1, §2
Human hepatocellular carcinoma HepG2 and human pancreatic cancer MIA PACA II cells were obtained from ATCC (Rockville, Md.). They were grown in DMEM (high glucose, Invitrogen) supplemented with 10% FBS, 50 μg/mL penicillin and 50 μg/mL streptomycin, 37° C., 5% CO2 until they reached 80-90% confluency, after which they were subcultured. Passage numbers were kept within 7-14 passages for both cell types.

Where [8] appears, read: PC-3M, Table 3, 72 h, mean (SD), read-out: IC50 PC3.
The mark [9] stands for this setting: IMR-90, further testing, 72 h, mean (SD), read-out: IC50 IMR90.
Where [10] appears, read: MDA-MB-231, 72 h, read-out: IC50 MDA-MB-231 (μM).
Where [11] appears, read: MDA-MB-231, 72 h, read-out: IC50MDA-MB-231 (μM).
[12] abbreviates: Table 3, mean of two or more determinations (SD), read-out: IC50 Icmt.
The mark [13] stands for this setting: MDA-MB-231, read-out: IC50 (μM) MDA MB 231.

≈ marks a conversion by molar mass, not a printed value. Like-named read-outs stand apart in the source and are kept apart here.

T1 sequence (O60725 whole entry, species assumed): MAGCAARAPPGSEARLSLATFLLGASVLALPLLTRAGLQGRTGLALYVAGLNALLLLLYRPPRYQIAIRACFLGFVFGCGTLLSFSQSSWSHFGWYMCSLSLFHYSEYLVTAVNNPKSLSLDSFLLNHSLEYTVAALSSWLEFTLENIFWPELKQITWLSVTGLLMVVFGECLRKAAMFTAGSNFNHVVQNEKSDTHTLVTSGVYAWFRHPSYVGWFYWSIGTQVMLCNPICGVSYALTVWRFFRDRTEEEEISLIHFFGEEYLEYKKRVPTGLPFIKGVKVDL

For `Cn1c(=O)c2c(ncn2C)n(C)c1=O` [caffeine, reference compound], the “Pe sequence of standard compounds” value in data set [1] was “verapamil>quinidine>caffeine”.
`CCCCCCCCn1cc(CN(CC)CC)c2cc(-c3cccnc3)ccc21` [Compound 8-7, Diethyl-(1-octyl-5-pyridin-3-yl-1H-indol-3ylmethyl)-amine]: the IC50 in data set [2] (setting [8]) worked out at 5.84 µM; in data set [3] (setting [9]), 5.52 µM; in data set [4] (setting [10]), 6.01 µM; in data set [4] (setting [11]) it was 5.5 µM; in data set [5], 1.8 µM; in data set [5] (setting [12]), 1.75 µM. Besides, the “Aqueous Solubility (pH 7.4) 24 hours” value in the data set “physchem” (24 h, pH 7.4) is listed as 244.8 (9.7) μM. In the data set “physchem” (24 h, pH 7.4), the “Solubility (μM)” value was 244.8 (9.7) μM. The solubility – broadly, the dissolved amount per volume that the medium holds – at 3 h in “physchem” was found to be 250 µM (≈ 97.8 µg/mL). For the same compound, the results for the “DLS count rate (kcps)” value in data set [6] (1 μM) and in data set [6] (10 μM) were 16.8 kcps and 16.5 kcps, respectively.
With `C=C[C@H]1C[N@@]2CC[C@H]1C[C@@H]2[C@@H](O)c1ccnc2ccc(OC)cc12` [quinidine, reference compound], in data set [1], the “Pe sequence of standard compounds” value is given as “verapamil>quinidine>caffeine”.
As to `CCCCCCCCn1cc(CN(CC)CC)c2cc(-c3cncnc3)ccc21` [Compound 8-15, Diethyl-(1-octyl-5-pyrimidin-5-yl-1H-indol-3ylmethyl)-amine], the IC50 in data set [2] (setting [8]) amounted to 8.32 µM; in data set [3] (setting [9]), 9.84 µM; in data set [4] (setting [10]), 13.2 µM; in data set [4] (setting [11]), 9 µM; in data set [5] (setting [12]) it was 1.58 µM; in data set [5] (further testing, mean (SD), read-out: IC50 Icmt) it was 1.6 µM. The same compound gave a solubility at 24 h in the data set “physchem” of 272 µM (≈ 107 µg/mL). Further, the “Solubility (μM)” value in the data set “physchem” (24 h, pH 7.4) is 271.56 (6.63) μM. In “physchem”, this compound yielded a solubility at 3 h of 266 µM (≈ 105 µg/mL). Besides, the “DLS count rate (kcps)” value amounted to 20.4 kcps in data set [6] (1 μM) and 28.9 kcps in data set [6] (10 μM).
In the case of `CCCCCCCCn1cc(CN(CC)CC)c2cc(-c3ccc(S(C)(=O)=O)cc3)ccc21` [Compound 8-10, Diethyl-[5(4-methanesulfonyl-phenyl)-1-octyl-1H-indol-3ylmethyl]-amine], the IC50 came to 4.74 µM in data set [2] (setting [8]); 4.74 µM in data set [2] (Table 6, from earlier table, read-out: IC50 (μM) PC3); 5.52 µM in data set [3] (IMR-90, Table 6, mean (SD), read-out: IC50 (μM) IMR90); 3.44 µM in data set [7]; 5.56 µM in data set [4] (setting [11]); 5.56 µM in data set [4] (setting [13]). Further, the IC50 in data set [5] (setting [12]) was 1.72 µM.
Consider `CCCCCCCCn1cc(CN(CC)CC)c2cc(-c3ccc(S(=O)(=O)NC)cc3)ccc21` [Compound 8-24, 4-(3-Diethylaminomethyl-1-octyl-1H-indol-5-yl)-N-methyl-benzensulfonamide], for which the IC50 worked out at 4.76 µM in data set [7], 8.52 µM in data set [4] (setting [11]), 8.7 µM in data set [4] (setting [13]) and 1.71 µM in data set [5] (setting [12]).
Compound `O=C(OCc1ccccc1)c1ccccc1` [benzyl benzoate, reference compound] returned a DLS count rate in data set [6] (positive control, 250 μM) of 1180 kcps.
`CCCCCCCCn1cc(CN(CC)CC)c2cc(-c3cnc(N(C)C)nc3)ccc21`: in “physchem”, the concentration in solution (solubility at 24 h) was 24.9 µM (≈ 10.8 µg/mL) and the concentration in solution (solubility at 3 h) came to 25.3 µM (≈ 11 µg/mL).
